# Laboratory results as given in patent publication US7223403B2, “Method to prepare compositions comprising yeast treated with electromagnetic energy” (Ultra Biotech Limited, priority 2003, dated 2007).
# Read-outs that look alike come from different tables or passages of the source.
# Columns and labels:
# [1] = test system: Wistar King rat brain cancer cell line WKS-1; conditions: 2VCR 4.5 mg/kg/day i.v.; for Number of live animals remaining in the groups after 30 days of treatment: 30 rats per group
# Description: The survival time of rats after tumor injection and treatment was studied.
# (§1) The biological composition comprising 10^8 cells per ml of activated and conditioned yeast cells of the strain Saccharomyces cerevisiae Hansen strain AS2.501 was prepared by the methods described in Section 5.1 and subsections therein.
# The animals were prepared in a similar manner as described in Section 8.1.
# (§2) The rats injected with tumor cells were immediately divided into 4 experimental groups of ten rats per group and one control group. The four experimental groups were triplicated (i.e., using a total of 120 rats in the experimental groups). In group 2AY, the rats received 1.2 ml of the biological composition once per day. In group 2NY, the rats received 1.2 ml of the untreated yeast cells once per day. In group 2VCR, the rats were injected intravenously with 4.5 mg of vinblastine (VCR) per kg body weight per day. In group 2CK1, the rats received 1.2 ml of physiological saline once per day.
# The rats received the biological compositions, untreated yeast cells, VCR, or saline on the same day as the tumor cells were transplanted. The rats in group 2CK2 also started receiving saline on the same day as the other four groups. The biological compositions, untreated yeast cells and saline were administered orally by a feeding tube and the VCR by intravenous injection for 30 consecutive days. The rats were observed over 6 months from the day of tumor inoculation and survival was recorded. The weight of the rats and the weight of the tumor were determined by standard techniques.
# [2] = test system: Wistar King rat brain cancer cell line WKS-1; test: Wistar rat model of human brain cancer, growth of the tumor (Example 8); format: in vivo; conditions: WKS-1 tumor-bearing rats, 30 consecutive days of treatment, sacrificed on 31st day; AY/NY 0.8 ml oral once per day, VCR 3 mg/kg/day i.v.
# Description: The growth of the tumor in the rats was studied.
# About 2×10^7 viable tumor cells of the Wistar King rat brain cancer type WKS-1 (obtainable from the Shanghai Medical University, Shanghai, China) in about 0.4 ml culture suspension were injected subcutaneously into the animals.
# In group AY, the rats received 0.8 ml of the biological composition once per day. In group NY, the rats received 0.8 ml of the untreated yeast cells once per day. […] In group CK1, the rats received 0.8 ml of physiological saline once per day.
# On the 31st day from tumor inoculation, the rats were sacrificed.
# [3] = test system: kun ming murine brain cancer cell line B22; conditions: 2BCNU 1.2 mg/kg/day s.c.; for Number of live animals remaining in the groups after 30 days of treatment: 30 mice per group
# Description: The survival time of mice after tumor injection and treatment was studied.
# as §1
# The animals were prepared in a similar manner as described in Section 6.1.
# as §2, with “mice” for “rats”, “0.5” for “1.2”, “2BCNU,” for “2VCR,”, “subcutaneously” for “intravenously”, “1.2” for “4.5”, “chloroethylnitrosourea (BCNU)” for “vinblastine (VCR)”
# The mice received the biological compositions, untreated yeast cells, BCNU or saline on the same day as the tumor cells were transplanted. The mice in group 2CK2 also started receiving saline on the same day as the other four groups. The biological compositions, untreated yeast cells and saline were administered orally by a feeding tube and the BCNU by subcutaneous injection for 30 consecutive days. The mice were observed over 6 months from the day of tumor inoculation and survival was recorded. The weight of the mice and the weight of the tumor were determined by standard techniques.
# [4] = test system: kun ming murine brain cancer cell line B22; test: kun ming mouse model of human brain cancer, growth of the tumor (Example 6); conditions: B22 tumor-bearing mice, 30 consecutive days of treatment, sacrificed on 31st day; AY/NY 0.3 ml oral once per day, BCNU 0.8 mg/kg/day s.c.
# Description: as §1
# The mice injected with tumor cells were immediately divided into 4 experimental groups of ten mice per group and one control group. The four experimental groups were triplicated (i.e., using a total of 120 mice in the experimental groups).
# The mice received the biological compositions, untreated yeast cells, BCNU or saline on the same day as the tumor cells were transplanted. The mice in group CK2 also started receiving saline on the same day as the other four groups. The biological compositions, untreated yeast cells and saline were administered orally by a feeding tube and the BCNU by subcutaneous injection for 30 consecutive days. […] The weight of the mice and the weight of the tumor were determined by standard techniques.
# [5] = rats that survived, observed over 6 months, 2AY/2NY 1.2 ml oral per day, 30 days
# [6] = mice that survived, observed over 6 months, 2AY/2NY 0.5 ml oral per day, 30 days
smiles,measurement,setting,value
"CC[C@]1(O)C[C@@H]2CN(CCc3c([nH]c4ccccc34)[C@@](C(=O)OC)(c3cc4c(cc3OC)N(C)[C@H]3[C@@](O)(C(=O)OC)[C@H](OC(C)=O)[C@]5(CC)C=CCN6CC[C@]43[C@@H]65)C2)C1 [VCR, vinblastine]",Number of live animals remaining in the groups after 30 days of treatment,"[1]; 0 month after cessation of treatment, 2AY/2NY 1.2 ml oral per day",30
same,Number of live animals remaining in the groups after 30 days of treatment,"[1]; 1 month after cessation of treatment, 2AY/2NY 1.2 ml oral per day",30
same,survival outcome during the experiment,"[1]; 2NY 1.2 ml oral per day, 30 days, observed over 6 months",all died during the experiment
same,Number of live animals remaining in the groups after 30 days of treatment,"[1]; 2 months after cessation of treatment, 2AY/2NY 1.2 ml oral per day",30
same,Number of live animals remaining in the groups after 30 days of treatment,"[1]; 3 months after cessation of treatment, 2AY/2NY 1.2 ml oral per day",17
same,Number of live animals remaining in the groups after 30 days of treatment,"[1]; 4 months after cessation of treatment, 2AY/2NY 1.2 ml oral per day",7
same,Number of live animals remaining in the groups after 30 days of treatment,"[1]; 5 months after cessation of treatment, 2AY/2NY 1.2 ml oral per day",3
same,Number of live animals remaining in the groups after 30 days of treatment,"[1]; 6 months after cessation of treatment, 2AY/2NY 1.2 ml oral per day",0
same,mean weight of rats and standard deviation,[1]; [5],all animals dead
same,mean weight of tumor nodules and standard deviation,[1]; [5],all animals dead
same,mean weight of rats and standard deviation,[2],188.3 ± 8.3 g
same,mean weight of tumor nodules and standard deviation,[2],2.87 ± 2.54 g
"O=NN(CCCl)C(=O)NCCCl [BCNU, chloroethylnitrosourea]",Number of live animals remaining in the groups after 30 days of treatment,"[3]; 0 month after cessation of treatment, 2AY/2NY 0.5 ml oral per day",30
same,Number of live animals remaining in the groups after 30 days of treatment,"[3]; 1 month after cessation of treatment, 2AY/2NY 0.5 ml oral per day",21
same,survival outcome during the experiment,"[3]; 2NY 0.5 ml oral per day, 30 days, observed over 6 months",all died during the experiment
same,Number of live animals remaining in the groups after 30 days of treatment,"[3]; 2 months after cessation of treatment, 2AY/2NY 0.5 ml oral per day",15
same,Number of live animals remaining in the groups after 30 days of treatment,"[3]; 3 months after cessation of treatment, 2AY/2NY 0.5 ml oral per day",4
same,Number of live animals remaining in the groups after 30 days of treatment,"[3]; 4 months after cessation of treatment, 2AY/2NY 0.5 ml oral per day",0
same,Number of live animals remaining in the groups after 30 days of treatment,"[3]; 5 months after cessation of treatment, 2AY/2NY 0.5 ml oral per day",0
same,Number of live animals remaining in the groups after 30 days of treatment,"[3]; 6 months after cessation of treatment, 2AY/2NY 0.5 ml oral per day",0
same,mean weight of mice and standard deviation,[3]; [6],all animals dead
same,mean weight of tumor nodules and standard deviation,[3]; [6],all animals dead
same,mean weight of mice and standard deviation,[4],18.4 ± 3.4 g
same,mean weight of tumor nodules and standard deviation,[4],1.02 ± 0.52 mg
